Experimental data as given in patent US12508328B2, “Bio-activated reporters to visualize, in real time, specific gene therapy products” (Northwestern University, priority 2019, dated 2025).

Columns and labels:
[1] = Relaxivity (1.4 T) in MOPS and MOPS/CO3^2−; assay type: physicochemical; conditions: for Δr1 relative to the cleaved control product 11: intramolecular series 10a-d, 37° C.
Procedure: While measurements of q indicate how well an agent can restrict water access to the GdIII center, the most important property for a bio-activated contrast agent is the change in relaxivity upon enzymatic cleavage (r1). To evaluate the signal change in the presence of CO32−, relaxivities of the intermolecular activated agents were measured in two different buffer conditions, the non-coordinating buffer MOPS and MOPS/CO32−.
T1 relaxation times were obtained for 5a-c (FIG. 13), and complexes 10a-d (FIG. 14), and 11 at 37° C. at 60 MHz (1.4 T) on a Bruker mq60 minispec spectrometer (Billerica, MA). Three 1 mM solutions of each complex were prepared in four different buffer conditions 1) 10 mm 3-(N-morpholino)propanesulfonic acid (MOPS), 100 mm NaCl, pH 7.4, 2) 10 mm MOPS, 24 mm NaHCO3, 100 mm NaCl, pH 7.4, 3) Dulbecco's Phosphate Buffer (DPBS) pH 7.3 Life Technologies, and 4) b-galactosidase enzyme assay buffer, 200 mm sodium phosphate, 100 mm bmercaptoethanol, 2 mm MgCl2, pH 7.3 (FIG. 15). Three sets of five serial dilutions (about 1 mm, 0.5 mm, 0.25 mm, 0.125 mm and 0.0625 mm) were prepared for each complex. T1 relaxation rates were measured using an inversion recovery pule sequence (t1_ir_mb) with a 10 ms first pulse separation, recycle delay and final pulse separation ≥5 T1. T1 relaxation rates were plotted as a function of GdIII concentrations as determined by ICP-MS, r1/r2 was obtained from linear fit of concentration vs. T1 as described in Equation (1).

β-gal = β-gal (Escherichia coli, UniProt P00722); conditions: for T1 signal in the presence of β-gal compared with cleaved agent 11: 24 h incubation
Sequence of β-gal (P00722 2-1024): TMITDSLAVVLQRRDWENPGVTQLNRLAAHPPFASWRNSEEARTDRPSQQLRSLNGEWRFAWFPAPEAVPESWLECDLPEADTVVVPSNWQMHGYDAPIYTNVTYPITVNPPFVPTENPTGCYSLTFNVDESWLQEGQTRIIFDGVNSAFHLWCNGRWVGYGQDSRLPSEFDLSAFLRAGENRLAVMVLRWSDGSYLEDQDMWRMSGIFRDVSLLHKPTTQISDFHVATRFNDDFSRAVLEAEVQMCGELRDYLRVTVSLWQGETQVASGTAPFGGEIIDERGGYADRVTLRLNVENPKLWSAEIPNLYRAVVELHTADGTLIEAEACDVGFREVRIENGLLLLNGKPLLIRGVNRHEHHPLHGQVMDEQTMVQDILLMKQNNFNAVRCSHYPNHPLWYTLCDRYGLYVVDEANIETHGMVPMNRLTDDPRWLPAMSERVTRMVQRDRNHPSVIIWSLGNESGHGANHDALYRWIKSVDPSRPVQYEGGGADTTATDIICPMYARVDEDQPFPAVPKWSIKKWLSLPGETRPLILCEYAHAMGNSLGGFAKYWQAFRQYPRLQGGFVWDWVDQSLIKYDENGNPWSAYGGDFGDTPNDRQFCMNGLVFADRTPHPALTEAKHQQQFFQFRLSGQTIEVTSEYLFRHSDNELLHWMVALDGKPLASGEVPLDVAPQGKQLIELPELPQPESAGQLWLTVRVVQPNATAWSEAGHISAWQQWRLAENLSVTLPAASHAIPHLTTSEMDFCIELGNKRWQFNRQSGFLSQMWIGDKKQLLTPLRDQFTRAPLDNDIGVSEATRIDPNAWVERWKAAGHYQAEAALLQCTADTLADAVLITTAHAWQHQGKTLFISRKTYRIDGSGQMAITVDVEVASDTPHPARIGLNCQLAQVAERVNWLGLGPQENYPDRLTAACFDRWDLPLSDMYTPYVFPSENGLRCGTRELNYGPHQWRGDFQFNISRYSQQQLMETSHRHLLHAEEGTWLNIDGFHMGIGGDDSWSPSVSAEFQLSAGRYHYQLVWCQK
Procedure: MR images were acquired on a Bruker Pharmscan 7 T imaging spectrometer fitted with shielded gradient coils at 25° C. Image analysis was carried out using Paravision 5.0 p13 software (Bruker, Billerica, MA, USA) with monoexponential curve-fitting of image intensities of selected regions of interest (ROIs) for each axial slice. […] Exact Gd(III) concentration was verified by ICP-MS. Either 10 μL of enzyme stock solution (50% enzyme assay buffer, 50% glycerol, at 521 U/mL β-gal) or 10 μL of a 50% enzyme assay buffer/50% glycerol solution (used as a control) were added to a 190 μL aliquot of each complex. After this addition, the final concentration of each complex was 475 μM, with 26.1 U/mL of β-gal. The solutions were incubated at 37° C. for 24 hours, then aliquoted to 5, ¾″ flame-sealed Pasteur pipets. The bottom sections of the flame-sealed pipets were then scored with a glass scribe, broken into small capillaries, and imaged using a RF RES 300 1H 089/023 quadrature transmit receive 23 mm volume coil (Bruker BioSpin, Billerica, MA, USA). T1 relaxation times were measured using a rapid-acquisition rapid-echo RARE-VTR T1-map pulse sequence with the following imaging parameters: TE (11.0 ms), TR (500.0 ms), field of view (FOV)=25×25 mm2, matrix size (MTX)=256×256, number of axial slices=5, slice thickness (SI)=1.0 mm, and averages (NEX)=3, and total scan time was 2:36:57. T2 values were measured using a multislice multiecho (MSME) T2-map pulse sequence, with static TR (5000 ms) and 32 fitted echoes in 11 ms intervals (11, 22, . . . , 352 ms). Imaging parameters were as follows: FOV=25×25 mm2, MTX=256×256, number of axial slices=4, SI=1.0 mm, NEX=3, and a total scan time=48 min. T1 images and times can be found in FIG. 14 and T2 maps and times can be found in FIG. 18.

[2] = Complex stability measured by relaxivity (T1); assay type: physicochemical; conditions: for change in T1 over time (stability): 1 mM in enzyme buffer pH 7.3, over 140 hours
[3] = cited from earlier work; for link to nephrogenic systemic fibrosis (NSF): clinical use
[4] = cited from earlier work
[5] = intravenous, two-compartment open-model

## CCOC(=O)CCCNc1cc(COC(=O)NCCN2CCN(CC(=O)[O-])CCN(CC(=O)[O-])CCN(CC(=O)[O-])CC2)ccc1O[C@@H]1O[C@H](CO)[C@H](O)[C@H](O)[C@H]1O.[Gd+3] [10b, Gadolinium(III)-1-(4-(2-(1-(4,7,10-triscarboxymethyl-(1,4,7,10tetraazacyclododecyl)))ethylcarbamoyloxymethyl)-2-((4-ethoxy-4-oxobutyl)amino)phenyl)-β-D-galactopyranose]
[1]; 10a-d, MOPS
  Δr1 in MOPS: largest
[1]
  Δr1 relative to the cleaved control product 11: positive
β-gal; 7 T T1 solution phantoms
  change in MR contrast +/−β-gal: greatest change in MR contrast
β-gal; 7 T solution phantoms
  T1 signal in the presence of β-gal compared with cleaved agent 11: does not appear to fully activate
β-gal; 7 T solution phantoms, assay buffer, 24 h, +β-gal 26.1 U/mL
  T1: 378 ms
[2]
  change in T1 over time (stability): No significant change in T1

## CCOC(=O)CCCCCCCNc1cc(COC(=O)NCCN2CCN(CC(=O)[O-])CCN(CC(=O)[O-])CCN(CC(=O)[O-])CC2)ccc1O[C@@H]1O[C@H](CO)[C@H](O)[C@H](O)[C@H]1O.[Gd+3] [10d, Gadolinium(III)-1-(4-(2-(1-(4,7,10-triscarboxymethyl-(1,4,7,10tetraazacyclododecyl)))ethylcarbamoyloxymethyl)-2-((8-ethoxy-8-oxooctyl)amino)phenyl)-β-D-galactopyranose]
[1]
  Δr1 relative to the cleaved control product 11: negative
β-gal; 7 T solution phantoms
  T1 signal in the presence of β-gal compared with cleaved agent 11: approximately the same
[2]
  change in T1 over time (stability): No significant change in T1
[2]; cell culture media, over 140 hours
  change in T1 over time (stability) in cell culture media: No significant change in T1

## CNC(=O)CN(CCN(CCN(CC(=O)[O-])CC(=O)NC)CC(=O)[O-])CC(=O)[O-].[Gd+3] [Omniscan]
[3]
  link to nephrogenic systemic fibrosis (NSF): associated with the onset of NSF

## CNC[C@H](O)[C@@H](O)[C@H](O)[C@H](O)CO.CNC[C@H](O)[C@@H](O)[C@H](O)[C@H](O)CO.O=C([O-])CN(CCN(CC(=O)[O-])CC(=O)O)CCN(CC(=O)[O-])CC(=O)O.[Gd+3] [Magnevist, gadopentate dimeglumine]
[4]; equal to the extracellular space
  volume of distribution: ~0.266 L/kg
[4]; in vivo
  binding to human serum protein: has not been shown to bind
[4]; [5]
  distribution half-life: 12 min
  elimination half-life: 96 min
[4]; intravenous
  dose excreted in the urine by 24 hours: 91%
  dose excreted in the urine within 6 hours: ~83%
[3]
  link to nephrogenic systemic fibrosis (NSF): associated with the onset of NSF
[3]; intrathecal
  dose shown to enhance after intrathecal contrast delivery: 0.004 mmol/kg
[3]; intravenous delivery
  safe dose in preclinical safety studies: 50 × the normal dose

## CCOC(=O)CNc1cc(COC(=O)NCCN2CCN(CC(=O)[O-])CCN(CC(=O)[O-])CCN(CC(=O)[O-])CC2)ccc1O[C@@H]1O[C@H](CO)[C@H](O)[C@H](O)[C@H]1O.[Gd+3] [10a, Gadolinium(III)-1-(4-(2-(1-(4,7,10-triscarboxymethyl-(1,4,7,10tetraazacyclododecyl)))ethylcarbamoyloxymethyl)-2-((2-ethoxy-2-oxoethyl)amino)phenyl)-β-D-galactopyranose]
[1]; 10a-d
  relaxivity within the intramolecular series: highest relativity of the series
[1]
  Δr1 relative to the cleaved control product 11: negative
[2]
  change in T1 over time (stability): No significant change in T1
